What all share (assay type): nucleic-acid assay
In assay [1] the test system is Nucleic Acid. In words: Stabilization of 5'-d[(G3T2A)3G3]-3' quadruplex DNA assessed as change in melting temperature at 20 uM by CD-spectrophotometry.
The target of assay [2] is Nucleic Acid. In words: Binding affinity to 5'-d[(G3T2A)3G3]-3' quadruplex DNA by surface plasmon resonance. Background: SPR reads the build-up and loss of mass on a sensor chip optically.
Assay [3] concerns Nucleic Acid. In words: Stabilization of 5'-d[(G3T2A)3G3]-3' quadruplex DNA assessed as change in melting temperature at 10 uM by CD-spectrophotometry.
The test system of assay [4] is Nucleic Acid. In words: Stabilization of 5'-d[(G3T2A)3G3]-3' quadruplex DNA assessed as change in melting temperature at 5 uM by CD-spectrophotometry.
In assay [5] the test system is Nucleic Acid. In words: Stabilization of 5'-d[(AT)10]-3' duplex DNA assessed as melting temperature at 20 uM by CD-spectrophotometry.

Structures are written as SMILES.

For `Cc1ccnc2c1ccc1c(C)ccnc12`, the shift in melting temperature (ΔTm) (usually the change in melting temperature against a reference sample) with Nucleic Acid [1] was determined as 0.1 °C.
For `NCCCNc1ccnc2c1ccc1c(NCCCN)ccnc12`, the ΔTm was 13.1 °C in the assay on Nucleic Acid [1], 10.6 °C with Nucleic Acid [3] and 2.4 °C with Nucleic Acid [4]. For the same molecule, at Nucleic Acid [2], the Kd (in general, a measure of binding affinity in units of concentration) turned out to be 450 nM.
The matching figures for `CN(C)CCNc1ccnc2c1ccc1c(NCCN(C)C)ccnc12`: 10.5 °C, 8.8 °C, 1.8 °C and 820 nM.
For the molecule `Nc1ccnc2c1ccc1c(N)ccnc12`, the ΔTm in the assay with Nucleic Acid [1] was 1.3 °C.
For `CN(C)CCCCNc1ccnc2c1ccc1c(NCCCCN(C)C)ccnc12`, the shift in melting temperature (ΔTm) in the assay with Nucleic Acid [1] worked out at 14.4 °C; with Nucleic Acid [3] it was 13 °C; with Nucleic Acid [4] it was 2.3 °C. Besides, binding at Nucleic Acid [2] was put at a Kd of 330 nM.
Take `N=C(N)NCCCNc1ccnc2c1ccc1c(NCCCNC(=N)N)ccnc12`: the thermal shift (ΔTm) is 16.6 °C in the assay with Nucleic Acid [1], 14.2 °C in the assay with Nucleic Acid [3] and 6 °C in the assay with Nucleic Acid [4]. Binding on Nucleic Acid [2] was put at a Kd of 410 nM.
On to `c1cnc2c(c1)ccc1cccnc12`, for which the thermal shift (ΔTm) with Nucleic Acid [1] worked out at 0 °C.
Take `N=C(N)NCCNc1ccnc2c1ccc1c(NCCNC(=N)N)ccnc12`: the shift in melting temperature (ΔTm) in the assay on Nucleic Acid [1] is 13.7 °C; with Nucleic Acid [3] it was 9.9 °C; in the assay with Nucleic Acid [4] it was 3 °C. The molecule further registered a Kd at Nucleic Acid [2] of 400 nM.
The matching figures for `NCCNc1ccnc2c1ccc1c(NCCN)ccnc12`: 9.9 °C, 7.6 °C, 2 °C and 720 nM.
As to `NCCCCNc1ccnc2c1ccc1c(NCCCCN)ccnc12`, the ΔTm with Nucleic Acid [1] turned out to be 15.3 °C; in the assay with Nucleic Acid [3], 14.6 °C; in the assay with Nucleic Acid [4], 2.5 °C. For the same molecule, binding on Nucleic Acid [2] was put at a Kd of 230 nM. In addition, in the assay on Nucleic Acid [5], the Tm (usually the temperature at the midpoint of the melting transition) was found to be 57 °C.
Consider `CN(C)CCCNc1ccnc2c1ccc1c(NCCCN(C)C)ccnc12`, for which the values for the ΔTm in the assay with Nucleic Acid [1], in the assay on Nucleic Acid [3] and with Nucleic Acid [4] were 13.3 °C, 10.6 °C and 1.9 °C, respectively. This molecule also returned a Kd at Nucleic Acid [2] of 300 nM.
Consider `N=C(N)NCCCCNc1ccnc2c1ccc1c(NCCCCNC(=N)N)ccnc12`, for which the thermal shift (ΔTm) with Nucleic Acid [1] came out at 17.3 °C; in the assay on Nucleic Acid [3] it was 14.7 °C; in the assay on Nucleic Acid [4] it was 6.1 °C. In addition, binding on Nucleic Acid [2] was characterised by a dissociation constant (Kd) of 330 nM. Further, the Tm in the assay with Nucleic Acid [5] stood at 63 °C.

Values taken from ChEMBL document CHEMBL1153095, “Design, synthesis and evaluation of 4,7-diamino-1,10-phenanthroline G-quadruplex ligands” (Bioorg Med Chem, 2009).
